Values quoted from earlier work, collected in patent publication US20090202633A1, “Extended release formulations of guaifenesin” (priority 2008, published 2009).

What was measured:
[1] = not given; remark: listed apart in the source

In the case of `COc1ccccc1OCC(O)CO` (centres unmarked) [Guaifenesin, 3-(2-methoxyphenoxy)-1,2-propanediol], the typical plasma half-life is given as “approximately one” and the solubility in water [1] is given as “soluble in water”.
